Experimental data published in patent US11931362B2 (CIPLA LIMITED, priority 2019, dated 2024).

Tested on: Escherichia coli, Staphylococcus aureus, Pseudomonas aeruginosa, Candida albicans, and Aspergillus niger
Assay: Preservative efficacy test, overall outcome
Assay type: cell-based
Details: bacteria and fungi
Description: Preservative effectiveness tests are compendial-guided assays that determine efficacy for preservative systems in pharmaceutical preparations. In such assays, test formulations are challenged with standardized suspensions of indicator aerobic bacteria and molds and microorganism survival is monitored over a 28-day period. The efficacy of the preservative against various microorganisms was measured using a USP/EP preservative efficacy test. These tests were conducted on Memmert equipment. In the procedure, formulations were tested against the following microorganisms: Escherichia coli, Staphylococcus aureus, Pseudomonas aeruginosa, Candida albicans, and Aspergillus niger. The bacterial strains and fungi were inoculated at a total concentration of […]. Samples were incubated for 7 days at room temperature (25° C.), and the total bacterial and fungal counts were measured using a colony counter. The log reduction (LR) values for the bacterial and fungal counts were calculated as log (initial count/final count).

SMILES: OCc1ccccc1 [benzyl alcohol]
- preservative efficacy test outcome: effective
